# Where a name gives a salt, the structure may show the parent alone.
# System: Bmi-1 protein
# Experiment: Sandwich ELISA Assay (Bmi-1 protein level in HT-1080 cells after compound treatment)
# Format: cell-based
# Details: Table 1, Bmi-1 sandwich ELISA, read-out: ELISA EC50 value for Bmi-1 protein
# Method in brief: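 Sandwich ELISA quantified Bmi-1 protein against recombinant standard (125–8000 pg/mL), with lysates captured overnight at 4 °C and signal by HRP/TMB at 450 nm (570 nm reference). Lysates came from HT-1080 cells incubated 40–48 h with test compounds in 0.5% DMSO.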
row,Structure (SMILES),EC50 [µM]
1,"Cc1ccc(Nc2cncc(-c3c(C(F)(F)F)nn4ccccc34)n2)cc1 [compound 75, N-(4-methylphenyl)-6-[2-(trifluoromethyl)pyrazolo[1,5-a]pyridin-3-yl]pyrazin-2-amine]",0.001 to 0.01
2,"Nc1nc2ccccc2n1-c1cncc(Nc2ccc(C(F)(F)F)cc2)n1 [compound 76, 1-(6-{[4-(trifluoromethyl)phenyl]amino}pyrazin-2-yl)-1H-benzimidazol-2-amine]",0.1 to 3
3,"COc1nc2ccccc2n1-c1cncc(Nc2ccc(C(F)(F)F)cc2)n1 [compound 77, 6-(2-methoxy-1H-benzimidazol-1-yl)-N-[4-(trifluoromethyl)phenyl]pyrazin-2-amine]",0.01 to 0.1
4,"CC(=O)O[C@@H](C)c1nc2ccccc2n1-c1cncc(Nc2ccc(C(F)(F)F)cc2)n1 [compound 78, (1S)-1-[1-(6-{[4-(trifluoromethyl)phenyl]amino}pyrazin-2-yl)-1H-benzimidazol-2-yl]ethyl acetate]",0.1 to 3
5,"CCSc1nc2ccccc2n1-c1cncc(Nc2ccc(C(F)(F)F)cc2)n1 [compound 79, 6-[2-(ethylsulfanyl)-1H-benzimidazol-1-yl]-N-[4-(trifluoromethyl)phenyl]pyrazin-2-amine]",0.01 to 0.1
6,"CCCCc1nc2ccccc2n1-c1cncc(Nc2ccc(C(F)(F)F)cc2)n1 [compound 80, 6-(2-butyl-1H-benzimidazol-1-yl)-N-[4-(trifluoromethyl)phenyl]pyrazin-2-amine]",0.1 to 3
7,"CCOc1nc2ccccc2n1-c1cncc(Nc2ccc(C(F)(F)F)cc2)n1 [compound 81, 6-(2-ethoxy-1H-benzimidazol-1-yl)-N-[4-(trifluoromethyl)phenyl]pyrazin-2-amine]",0.1 to 3
8,"Cc1nc2ncccc2n1-c1cncc(Nc2ccc(C(F)(F)F)cc2)n1 [compound 82, 6-(2-methyl-1H-imidazo[4,5-b]pyridin-1-yl)-N-[4-(trifluoromethyl)phenyl]pyrazin-2-amine]",0.01 to 0.1
9,"CCc1nc2ncccc2n1-c1cncc(Nc2ccc(C(F)(F)F)cc2)n1 [compound 83, 6-(2-ethyl-1H-imidazo[4,5-b]pyridin-1-yl)-N-[4-(trifluoromethyl)phenyl]pyrazin-2-amine]",0.01 to 0.1
10,"Cc1nc2ncccc2n1-c1cncc(Nc2ccc(OC(F)F)cc2)n1 [compound 85, N-[4-(difluoromethoxy)phenyl]-6-(2-methyl-1H-imidazo[4,5-b]pyridin-1-yl)pyrazin-2-amine]",0.01 to 0.1
11,"COc1ccc(Nc2cncc(-c3cccc4nc(C5CC5)cn34)n2)cc1 [compound 86, 6-(2-cyclopropylimidazo[1,2-a]pyridin-5-yl)-N-(4-methoxyphenyl)pyrazin-2-amine]",0.01 to 0.1
12,"FC1(F)Oc2ccc(Nc3cncc(-c4cccc5nc(C6CC6)cn45)n3)cc2O1 [compound 88, 6-(2-cyclopropylimidazo[1,2-a]pyridin-5-yl)-N-(2,2-difluoro-1,3-benzodioxol-5-yl)pyrazin-2-amine]",0.1 to 3
13,"FC1(F)Oc2ccc(Nc3cncc(-c4c(C(F)(F)F)nn5ccccc45)n3)cc2O1 [compound 92, N-(2,2-difluoro-1,3-benzodioxol-5-yl)-6-[2-(trifluoromethyl)pyrazolo[1,5-a]pyridin-3-yl]pyrazin-2-amine]",0.1 to 3
14,"FC(F)(F)c1ccc(Nc2cncc(-c3c(C(F)(F)F)nc4cnccn34)n2)cc1 [compound 93, 6-[2-(trifluoromethyl)imidazo[1,2-a]pyrazin-3-yl]-N-[4-(trifluoromethyl)phenyl]pyrazin-2-amine]",0.01 to 0.1
15,"CCc1nc2ncncc2n1-c1cncc(Nc2ccc(C(F)(F)F)cc2)n1 [compound 94, 6-(8-ethyl-7H-purin-7-yl)-N-[4-(trifluoromethyl)phenyl]pyrazin-2-amine]",0.1 to 3
16,"Cc1nc2ncccc2n1-c1cncc(Nc2ccc(OC(F)(F)F)cc2)n1 [compound 95, 6-(2-methyl-1H-imidazo[4,5-b]pyridin-1-yl)-N-[4-(trifluoromethoxy)phenyl]pyrazin-2-amine]",0.01 to 0.1
17,"Cc1cc(Nc2cncc(-c3c(C(F)(F)F)nc4ccccn34)n2)on1 [compound 97, N-(3-methyl-1,2-oxazol-5-yl)-6-[2-(trifluoromethyl)imidazo[1,2-a]pyridin-3-yl]pyrazin-2-amine]",0.1 to 3
18,"C[C@H](O)c1nc2ccccc2n1-c1cncc(Nc2ccc(C(F)(F)F)cc2)n1 [compound 98, (1S)-1-[1-(6-{[4-(trifluoromethyl)phenyl]amino}pyrazin-2-yl)-1H-benzimidazol-2-yl]ethanol]",0.01 to 0.1
19,"FC(F)(F)Oc1ccc(Nc2cccc(-c3c(C(F)(F)F)nc4ncccn34)n2)cc1 [compound 99, N-[4-(trifluoromethoxy)phenyl]-6-[2-(trifluoromethyl)imidazo[1,2-a]pyrimidin-3-yl]pyridin-2-amine]",0.1 to 3

row,Structure (SMILES),EC50 [µM]
1,"COc1ccc2nc(C(F)(F)F)c(-c3cccc(Nc4ccc(OC(F)(F)F)cc4)n3)n2c1 [compound 101, 6-[6-methoxy-2-(trifluoromethyl)imidazo[1,2-a]pyridin-3-yl]-N-[4-(trifluoromethoxy)phenyl]pyridin-2-amine]",0.01 to 0.1
2,"COc1ccc2nc(C(F)(F)F)c(-c3cccc(Nc4ccc(C(F)(F)F)cc4)n3)n2c1 [compound 102, 6-[6-methoxy-2-(trifluoromethyl)imidazo[1,2-a]pyridin-3-yl]-N-[4-(trifluoromethyl)phenyl]pyridin-2-amine]",0.01 to 0.1
3,"COc1ccc2nc(C(F)(F)F)c(-c3cccc(Nc4ccc(OC(F)F)cc4)n3)n2c1 [compound 103, N-[4-(difluoromethoxy)phenyl]-6-[6-methoxy-2-(trifluoromethyl)imidazo[1,2-a]pyridin-3-yl]pyridin-2-amine]",0.01 to 0.1
4,"Cc1nn(C)c(C)c1-c1cncc(Nc2ccc(OC(F)(F)F)cc2)n1 [compound 105, N-[4-(trifluoromethoxy)phenyl]-6-(1,3,5-trimethyl-1H-pyrazol-4-yl)pyrazin-2-amine]",0.01 to 0.1
5,"Cc1nn(C)c(C)c1-c1cncc(Nc2ccc(Br)cc2)n1 [compound 106, N-(4-bromophenyl)-6-(1,3,5-trimethyl-1H-pyrazol-4-yl)pyrazin-2-amine]",< 0.001
6,"FC(F)Oc1ccc(Nc2cccc(-c3c(C(F)(F)F)nc4ncccn34)n2)cc1 [compound 108, N-[4-(difluoromethoxy)phenyl]-6-[2-(trifluoromethyl)imidazo[1,2-a]pyrimidin-3-yl]pyridin-2-amine]",0.01 to 0.1
7,"Oc1ccc2nc(C(F)(F)F)c(-c3cccc(Nc4ccc(OC(F)(F)F)cc4)n3)n2c1 [compound 110, 3-(6-{[4-(trifluoromethoxy)phenyl]amino}pyridin-2-yl)-2-(trifluoromethyl)imidazo[1,2-a]pyridin-6-ol]",0.1 to 3
8,"Oc1ccc2nc(C(F)(F)F)c(-c3cccc(Nc4ccc(C(F)(F)F)cc4)n3)n2c1 [compound 111, 2-(trifluoromethyl)-3-(6-{[4-(trifluoromethyl)phenyl]amino}pyridin-2-yl)imidazo[1,2-a]pyridin-6-ol]",0.01 to 0.1
9,"COc1ccc2nc(C(F)(F)F)c(-c3cccc(Nc4ccc(OC=O)cc4)n3)n2c1 [compound 112, 4-({6-[6-methoxy-2-(trifluoromethyl)imidazo[1,2-a]pyridin-3-yl]pyridin-2-yl}amino)phenyl formate]",0.1 to 3
10,"COc1ccc2nc(C(F)(F)F)c(-c3cccc(Nc4ccc(O)cc4)n3)n2c1 [compound 113, 4-({6-[6-methoxy-2-(trifluoromethyl)imidazo[1,2-a]pyridin-3-yl]pyridin-2-yl}amino)phenol]",0.1 to 3
11,"FC(F)(F)c1ccc(Nc2cncc(-c3c(C(F)(F)F)nc4sccn34)n2)cc1 [compound 118, 6-[6-(trifluoromethyl)imidazo[2,1-b][1,3]thiazol-5-yl]-N-[4-(trifluoromethyl)phenyl]pyrazin-2-amine]",0.001 to 0.01
12,"COc1ccc(Nc2cncc(-c3c(C(F)(F)F)nc4sccn34)n2)cc1 [compound 119, N-(4-methoxyphenyl)-6-[6-(trifluoromethyl)imidazo[2,1-b][1,3]thiazol-5-yl]pyrazin-2-amine]",< 0.001
13,"FC(F)(F)Oc1ccc(Nc2cncc(-c3c(C(F)(F)F)nc4sccn34)n2)cc1 [compound 120, N-[4-(trifluoromethoxy)phenyl]-6-[6-(trifluoromethyl)imidazo[2,1-b][1,3]thiazol-5-yl]pyrazin-2-amine]",0.01 to 0.1
14,"FC(F)Oc1ccc(Nc2cncc(-c3c(C(F)(F)F)nc4sccn34)n2)cc1 [compound 121, N-[4-(difluoromethoxy)phenyl]-6-[6-(trifluoromethyl)imidazo[2,1-b][1,3]thiazol-5-yl]pyrazin-2-amine]",0.001 to 0.01
15,"FC(F)(F)c1nc2sccn2c1-c1cncc(Nc2ccccc2)n1 [compound 122, N-phenyl-6-[6-(trifluoromethyl)imidazo[2,1-b][1,3]thiazol-5-yl]pyrazin-2-amine]",0.1 to 3
16,"FC(F)(F)c1ccc(Nc2cncc(-n3c(C(F)(F)F)nc4ncccc43)n2)cc1 [compound 123, 6-[2-(trifluoromethyl)-1H-imidazo[4,5-b]pyridin-1-yl]-N-[4-(trifluoromethyl)phenyl]pyrazin-2-amine]",0.1 to 3
17,CCc1nc(C)c(-c2cncc(Nc3ccc(C(F)(F)F)cc3)n2)n1Cc1ccccc1 [compound 126],0.1 to 3
18,"COC(=O)c1ccc(Nc2cncc(-n3c(C)nc4ccccc43)n2)cc1 [compound 133, methyl 4-{[6-(2-methyl-1H-benzimidazol-1-yl)pyrazin-2-yl]amino}benzoate]",0.01 to 0.1
19,"FC(F)(F)c1ccc(Nc2cncc(-n3c(Cl)nc4ccccc43)n2)cc1 [compound 134, 6-(2-chloro-1H-benzimidazol-1-yl)-N-[4-(trifluoromethyl)phenyl]pyrazin-2-amine]",0.1 to 3

# Same assay, conditions: read-out: ELISA EC50 value for Bmi-1 protein, Table 1, Bmi-1 sandwich ELISA
row,Structure (SMILES),EC50 [µM]
1,"FC(F)Oc1ccc(Nc2cncc(-c3cccc4nc(C5CC5)cn34)n2)cc1 [compound 90, 6-(2-cyclopropylimidazo[1,2-a]pyridin-5-yl)-N-[4-(difluoromethoxy)phenyl]pyrazin-2-amine]",0.01 to 0.1

# — patent US10584115B2, “Substituted pyridine and pyrazine BMI-1 inhibitors” (PTC Therapeutics, Inc., priority 2013, dated 2020)
